Assay results as given in patent US20120172292A1, “METHOD FOR PROTECTION OF ANTIMICROBIAL AND ANTICANCER DRUGS FROM INACTIVATION BY NITRIC OXIDE” (NEW YORK UNIVERSITY, priority 2009, published 2012).
Where “and” joins values, the source holds several entries; their conditions need not be identical. Identical values can stand only once.

Experiments:
[1] = tested on: HepG2 human hepatocytes
[2] = tested on: Streptococcus C203; settings: cited from earlier work
[3] = tested on: B.subtilis; format: cell-based
[4] = tested on: S. aureus; settings: cited from earlier work
[5] = tested on: B.subtilis 6051 and Δnos; format: cell-based; settings: 25 μg/ml cefuroxime
[6] = tested on: B. subtilis; format: cell-based
[7] = tested on: B.anthracis; format: cell-based
[8] = tested on: S.aureus 4220 and Δnos; format: cell-based; settings: 0.4 μg/ml CEF
[9] = tested on: B.anthracis; format: cell-based; settings: CuFL 20 μM
[10] = tested on: B.subtilis; test: Growth of B.subtilis with ACR or AO premixed with NO donor; format: cell-based
[11] = tested on: Streptococcus; settings: cited from earlier work

SMILES: COc1cc(NS(C)(=O)=O)ccc1Nc1c2ccccc2nc2ccccc12 [AMSAcrine]
- cell survival, AMSAcrine preincubated with exogenous NO versus AMSAcrine alone ([1]; 20 μM AMSAcrine, 100 μM MAHMA NONOate, viability 24 hours later): 5.5 fold

SMILES: COc1cc2c(N)c3ccc([N+](=O)[O-])cc3[n+]([O-])c2cc1OC [9-Amino-2,3-dimethoxy-6-nitroacridine 10-oxides]
- MIC [2]: 20 nM and ~6 ng/ml

SMILES: c1ccc(-c2ccccn2)nc1 [bipyridyl]
- effect of pretreatment on toxicity of ACR [3]: substantially decreased the toxicity of ACR

SMILES: COC(=O)[C@@H](N)CCCNC(=N)N[N+](=O)[O-] [L-NAME, N G -nitro-L-arginine methyl ester]
- sensitivity of hepatocytes to AMSAcrine after inhibition of cellular NOS ([1]; 4 mM L-NAME 8 hours prior to 20 μM AMSAcrine): increased sensitization

SMILES: Cc1cc2cc3ccc(N(C)C)cc3[n+](C)c2cc1N.[Cl-] [Flavicid]
- MIC [4]: 10 μM and ~2.6 μg/ml

SMILES: CO/N=C(\C(=O)N[C@@H]1C(=O)N2C(C(=O)O)=C(COC(N)=O)CS[C@H]12)c1ccco1 [cefuroxime]
- killing of nos deficient versus wt cells [5]: much more efficiently than wt cells
- end products of NO oxidation (nitrite/nitrate) in growing culture after challenge [6]: increase
- killing of nos deficient versus wt cells [7]: much more efficiently than wt cells
- growth inhibition of nos-deficient versus wild type cells [8]: much greater extent
- NO production after antibiotic challenge [9]: greatly stimulated NO production

SMILES: CN(C)c1ccc2cc3ccc(N(C)C)cc3nc2c1 [AO, acridine orange]
- effect of NO treatment on antibacterial activity [10]: unaffected by NO treatment
- antibacterial effect compared with ACR ([10]; 10 μg/ml): significantly less than that of ACR

SMILES: Nc1c2ccccc2nc2cc([N+](=O)[O-])ccc12 [3-nitro-9-aminoacridine]
- MIC [11]: 1.5 μM and ~0.4 μg/ml
